Where two headings read alike, the source gives them in different places.
Test system: Achsel- und Fußschweiß
Conditions: for desodorierende Wirksamkeit: result in words, concentration not given

Ethanolamide der Zitronensäure was tested, and the “desodorierende Wirksamkeit” value was “Erfolgreich getestet”.

Ethanolamide der Malonsäure was tested, and the “desodorierende Wirksamkeit” value was “Erfolgreich getestet”.

In the case of NC(=O)NCCO [ß-Hydroxiethylharnstoff], the “desodorierende Wirksamkeit” value is reported as “Sehr wirksam”.

CCOC(N)=O [Urethan] was tested, and the “desodorierende Wirksamkeit” value was “Wirksam”.

In the case of O=C(O)CNC(=O)c1ccccc1 [Hippursäure], the “desodorierende Wirksamkeit” value is reported as “Wirksam”.

In the case of CC(=O)NCC(=O)O [N-Acetylglycin (Acetursäure), N-Acetylglycin], the “desodorierende Wirksamkeit” value is reported as “gute Wirkstoffe”.

For CC(C)(CO)C(O)C(=O)NCCCO (centres unmarked) [Panthenol, N-Propanolamid der 1,3-Dihydroxy-2,2-Dimethylbuttersäure, reference compound], the “Desodorierung des Achsel- und Fußschweißes” value (3 %ige Lösung in Alkohol/Wassergemisch) was “befriedigende Desodorierung”, the “Desodorierung des Achsel- und Fußschweißes” value (5 % in Alkohol/Wassergemisch, also in strongly perspiring persons) was “optimal” and the Hautfreundlichkeit (in vivo) was “hervorragender”.

For CC(=O)NCCO [Essigsäuremonoethanolamid], the “anhaltender Schutz vor der Bildung unangenehmer Zersetzungsprodukte des Achsel- und Fußschweißes” value (3 bis 5 % in a deodorant preparation, time after application) was ≤ 24 Stunden and the “desodorierende Wirksamkeit” value was “besonders kräftiger Wirkstoff”.

With CC(O)C(=O)NCCO (centres unmarked) [Ethanolamide der Milchsäure] the “desodorierende Wirksamkeit” value was “Die gleiche Eigenschaft”.

In the case of O=C1CC(=O)NC(=O)N1 [Malonylharnstoff(Barbitursäure), Malonylharnstoff], the “desodorierende Wirksamkeit” value is reported as “Wirksam”.

In the case of Ethanolamide der Glutarsäure, the “desodorierende Wirksamkeit” value is reported as “Erfolgreich getestet”.

For NC(N)=O [Harnstoff, reference compound], the “desodorierende Wirksamkeit” value was “mit bestem Erfolg”.

For NC(=O)NC(N)=O [Biuret], the “desodorierende Wirksamkeit” value was “Wirksam”.

In the case of Ethanolamide der Weinsäure, the “desodorierende Wirksamkeit” value is reported as “Erfolgreich getestet”.

For Ethanolamide der Adipinsäure, the “desodorierende Wirksamkeit” value was “Erfolgreich getestet”.

For CCC(=O)NCCO [Ethanolamide der Propionsäure], the “desodorierende Wirksamkeit” value was “Die gleiche Eigenschaft”.

With Ethanolamide der Bernsteinsäure the “desodorierende Wirksamkeit” value was “Erfolgreich getestet”.
